The target in experiment [1] is T1, recombinant human CLK3 (Homo sapiens, UniProt P49761).
T1 construct: purchased Thermo Fisher Scientific PV3826
As to the kind of experiment: CLK3 kinase assay (LANCE Ultra). Conditions: CLK3 0.5 nM, ATP 300 μM, 3 hours at 30° C. The class given is biochemical. As to the method: CLK3 kinase activity was measured using the LANCE® Ultra technology (PerkinElmer) essentially as recommended by the supplier. Briefly, 2.5 μL of test sample at 4× the desired final concentration in 4% DMSO were dispensed into white, low volume, round bottom, 384 well plates (Corning, cat. no. 4512). 5 μL of a mixture containing recombinant human CLK3 (Thermo Fisher Scientific, cat. no. PV3826) and the labeled peptide substrate ULight™-CREBtide (PerkinElmer, cat. no. TRF0107) prepared in 1.33× kinase buffer (Thermo Fisher Scientific, cat. no. PV3189) were then added. Finally, the reactions were started by adding 2.5 μL of a 4× solution of ATP in kinase buffer. The plates were sealed with adhesive foils and incubated for 3 hours at 30° C. in the dark. The final concentrations of CLK3, ULight™-CREBtide, and ATP were 0.5 nM, 50 nM, and 300 μM, respectively. 5 μL of 40 mM EDTA were then added to terminate the reactions. The Eu-anti-phospho-CREB antibody (PerkinElmer, cat. no. TRF0200) diluted in LANCE® detection buffer (PerkinElmer, cat. no. CR97) was then added to a final concentration of 2 nM and the reactions were incubated for 1 hour at room temperature in the dark. The signals were measured using a Synergy 4 reader (BioTek) with a 320/80 nm filter for the excitation and 620/10 nm and 665/8 nm filters for the donor and acceptor emission, respectively. Relative inhibition values were calculated by normalizing the raw data using solvent control wells (0% inhibition) and wells that received no ATP (100% inhibition). IC50 values were calculated by fitting the concentration-response data to a sigmoidal 4-parameter logistic model. IC50 values for CLK3 are determined from duplicate measurements at ten different concentrations (serial 1:3 dilutions).
For orientation: In TR-FRET formats the signal depends on donor and acceptor labels being close together.

The subject of experiment [2] is MDA-MB-231 cells. As to the kind of experiment: MDA-MB-231 proliferation assay. The class given is cell-based. Conditions: Homo sapiens, MDA-MB-231, 72 h, YO-PRO-1 Iodide readout. An excerpt: (§1) MDA-MB-231 and CAL-51 Proliferation Assay
(§2) Cells (MDA-MB-231 (American Type Culture Collection (ATCC), #HTB-26) or CAL-51 (Deutsche Sammlung von Mikroorganismen und Zellkulturen (DSMZ), #ACC302) as applicable) were cultivated in DMEM High Glucose (4.5 g/L) with L-Glutamine (BioConcept, cat. no. 1-26F03-I) supplemented with 1% Na-pyruvate (Sigma, cat. no. S8636), 1% Penicillin-Streptomycin (BioConcept, cat. no. 4-01F00H), and 10% FBS (Sigma, cat. no. F9665) using standard techniques. Cells were seeded in black, clear-bottom 384 well plates for tissue culture (Greiner Bio-One, cat. no. 781091) at a density of 750 cells per well in 20 μL medium and the plates were incubated overnight at 37° C. with 5% CO2 prior to treatment. Experimental compounds were serially diluted in DMSO to 200× the desired final concentrations. The solutions were then diluted 1:40 with culture medium and 5 μL aliquots were mixed into the wells containing the cells. The final concentration of DMSO was 0.5%. The plates were incubated for 72 hours and cell numbers were then measured using YO-PRO™-1 Iodide (ThermoFisher Scientific, cat. no. Y3603) essentially as recommended by the manufacturer. Briefly, a 12.5 μM solution of YO-PRO™_1 Iodide in 5× YO—PRO buffer (100 mM Na-citrate, 130 mM NaCl, pH 4) was combined with an equal volume of lysis buffer (0.6% NP-40, 30 mM EDTA, 30 mM EGTA, 0.33× YO—PRO buffer) and 12.5 μL of the mixture were dispensed into each well. The plates were incubated at room temperature in the dark for 30 minutes. Fluorescence intensity signals were then measured on a Synergy 4 reader (BioTek) using 485/20 nm and 530/25 nm filters for the excitation and emission, respectively. Relative proliferation values were calculated by normalizing the raw data using DMSO-treated cells (100% proliferation) and the signals obtained from cells that were evaluated at the time of compound addition (0% proliferation). The concentration-response data were fitted to a sigmoidal 4-parameter logistic model with the maximum constrained to 100%. GI50 values were calculated from the curves as the compound concentrations reducing proliferation to 50%.

Experiment [3] has as its system CAL-51 cells. As to the kind of experiment: CAL-51 proliferation assay. Conditions: Homo sapiens, CAL-51, 72 h, YO-PRO-1 Iodide readout. Type of experiment: cell-based.
Source text: as §1, §2

Among the data in patent US20260159486A1, “BENZO[H]QUINAZOLINE-4-AMINE DERIVATIVES FOR THE TREATMENT OF CANCER” (Redona Therapeutics, Inc., priority 2021, published 2026) are IC50 and GI50 values, retold here.

Each structure is given as a SMILES string. pIC50: −log10 of the molar value.

As usually defined, the pIC50 is the negative decadic logarithm of the IC50, by convention in mol/L. What is called GI50 is the concentration that inhibits growth by half.

T1 sequence (P49761 whole entry): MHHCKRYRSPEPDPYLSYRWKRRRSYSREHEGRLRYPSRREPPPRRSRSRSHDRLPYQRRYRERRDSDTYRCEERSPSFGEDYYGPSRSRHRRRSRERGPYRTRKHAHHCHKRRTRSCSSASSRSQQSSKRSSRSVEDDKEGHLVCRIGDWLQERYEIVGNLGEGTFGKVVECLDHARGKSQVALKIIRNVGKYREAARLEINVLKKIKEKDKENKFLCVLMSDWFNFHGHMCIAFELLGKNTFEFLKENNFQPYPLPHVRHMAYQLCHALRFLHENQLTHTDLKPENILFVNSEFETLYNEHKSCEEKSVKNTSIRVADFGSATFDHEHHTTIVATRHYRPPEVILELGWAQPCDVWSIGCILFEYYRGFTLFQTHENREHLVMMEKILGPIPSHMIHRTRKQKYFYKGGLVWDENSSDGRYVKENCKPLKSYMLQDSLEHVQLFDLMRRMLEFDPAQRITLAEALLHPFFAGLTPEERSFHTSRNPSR

`CN(c1c(O[C@H]2CC[C@H](N)CC2)ccc2c1CC(C)(C)c1c(N)ncnc1-2)S(=O)(=O)CCC(=O)O` [Example 69, 3-[[4-amino-8-(trans-4-aminocyclohexoxy)-5,5-dimethyl-6H-benzo[h]quinazolin-7-yl]-methyl-sulfamoyl]propanoic acid]: the pIC50 in experiment [1] was more than 7.52. The GI50 in experiment [2] and in experiment [3] was more than 2000 nM each time.

With `COCCS(=O)(=O)N(C)c1c(O[C@H]2CC[C@H](N)CC2)ccc2c1CC(C)(C)c1c(N)ncnc1-2` [Example 64, N-[4-amino-8-(trans-4-aminocyclohexoxy)-5,5-dimethyl-6H-benzo[h]quinazolin-7-yl]-2-methoxy-N-methyl-ethanesulfonamide], in experiment [1], the pIC50 is more than 7.52. In addition, the GI50 in experiment [2] and in experiment [3] was less than 100 nM throughout.

For `CC1(C)Cc2c(ccc(O[C@H]3CC[C@H](N)CC3)c2N)-c2ncnc(N)c21` [Example 5, 8-(trans-4-aminocyclohexoxy)-5,5-dimethyl-6H-benzo[h]quinazoline-4,7-diamine], the pIC50 in experiment [1] was more than 7.52. Besides, the GI50 in experiment [2] and in experiment [3] was 100 to 2000 nM throughout.

Regarding `CN(CCC#N)c1cccc2c1CC(C)(C)c1c(N)ncnc1-2` [Example 109, 3-[(4-amino-5,5-dimethyl-6H-benzo[h]quinazolin-7-yl)-methyl-amino]propanenitrile], the pIC50 in experiment [1] was 7.00 to 7.52. The GI50 was 100 to 2000 nM in experiment [2] and less than 100 nM in experiment [3].

`CC1(C)Cc2c(ccc(O[C@H]3CC[C@H](N)CC3)c2N2CCC(C(N)=O)C2)-c2ncnc(N)c21` (stereo partly drawn) [Example 77, 1-[4-amino-8-(trans-4-aminocyclohexoxy)-5,5-dimethyl-6H-benzo[h]quinazolin-7-yl]pyrrolidine-3-carboxamide]: in experiment [1], the pIC50 is more than 7.52. Besides, the GI50 in experiment [2] was more than 2000 nM; in experiment [3], 100 to 2000 nM.

In the case of `CC1(C)Cc2c(ccc(O[C@H]3CC[C@H](N)CC3)c2N(CCO)CCO)-c2ncnc(N)c21` [Example 11, 2-[[4-amino-8-(trans-4-aminocyclohexoxy)-5,5-dimethyl-6H-benzo[h]quinazolin-7-yl]-(2-hydroxyethyl)amino]ethanol], the pIC50 in experiment [1] was more than 7.52. The GI50 was more than 2000 nM in experiment [2] and 100 to 2000 nM in experiment [3].

As for `CN1CCOc2ccc3c(c21)CC(C)(C)c1c(N)ncnc1-3` [Example 4, 4,6,6-trimethyl-3,5-dihydro-2H-quinazolino[7,8-f][1,4]benzoxazin-7-amine], in experiment [1], the pIC50 was 7.00 to 7.52. In addition, the 50% growth inhibitory concentration (GI50) in experiment [2] and in experiment [3] was 100 to 2000 nM in each case.

Consider `CCCCN(C)c1c(O[C@H]2CC[C@H](N)CC2)ccc2c1CC(C)(C)c1c(N)ncnc1-2` [Example 100, 8-(trans-4-aminocyclohexoxy)-N7-butyl-N7,5,5-trimethyl-6H-benzo[h]quinazoline-4,7-diamine], for which the pIC50 in experiment [1] was 6.00 to 7.00. Further, the GI50 in experiment [2] and in experiment [3] was 100 to 2000 nM throughout.

Take `CC1(C)Cc2c(ccc(O[C@H]3CC[C@H](N)CC3)c2NCC2(C#N)CC2)-c2ncnc(N)c21` [Example 76, 1-[[[4-amino-8-(trans-4-aminocyclohexoxy)-5,5-dimethyl-6H-benzo[h]quinazolin-7-yl]amino]methyl]cyclopropanecarbonitrile]: the pIC50 in experiment [1] is 6.00 to 7.00. Moreover, the GI50 in experiment [2] and in experiment [3] was 100 to 2000 nM throughout.

With `CC1(C)Cc2c(ccc(O[C@H]3CC[C@H](N)CC3)c2N(CCC#N)C2CC2)-c2ncnc(N)c21` [Example 51, 3-[[4-amino-8-(trans-4-aminocyclohexoxy)-5,5-dimethyl-6H-benzo[h]quinazolin-7-yl]-cyclopropyl-amino]propanenitrile], the pIC50 in experiment [1] is more than 7.52. Moreover, the GI50 in experiment [2] and in experiment [3] was less than 100 nM each time.

For `CC1(C)Cc2c(ccc(O[C@H]3CC[C@H](N)CC3)c2N2CCC(C#N)C2)-c2ncnc(N)c21` (stereo partly drawn) [Example 66, 1-[4-amino-8-(trans-4-aminocyclohexoxy)-5,5-dimethyl-6H-benzo[h]quinazolin-7-yl]pyrrolidine-3-carbonitrile], the pIC50 in experiment [1] is more than 7.52. Besides, the GI50 in experiment [2] and in experiment [3] was less than 100 nM in each case.

Consider `CCCOc1c(O[C@H]2CC[C@H](N)CC2)ccc2c1CC(C)(C)c1c(N)ncnc1-2` [Example 19, 8-(trans-4-aminocyclohexoxy)-5,5-dimethyl-7-propoxy-6H-benzo[h]quinazolin-4-amine], for which, in experiment [1], the pIC50 is 7.00 to 7.52. Also, the GI50 in experiment [2] and in experiment [3] was 100 to 2000 nM in each case.

For `COc1ccc2c(c1N1CC(CO)C1)CC(C)(C)c1c(N)ncnc1-2` [Example 28, [1-(4-amino-8-methoxy-5,5-dimethyl-6H-benzo[h]quinazolin-7-yl)azetidin-3-yl]methanol], the pIC50 in experiment [1] was 6.00 to 7.00. Further, the GI50 in experiment [2] and in experiment [3] was 100 to 2000 nM throughout.

For the compound `CN(Cc1cocn1)c1c(O[C@H]2CC[C@H](N)CC2)ccc2c1CC(C)(C)c1c(N)ncnc1-2` [Example 105, 8-(trans-4-aminocyclohexoxy)-N7,5,5-trimethyl-N7-(oxazol-4-ylmethyl)-6H-benzo[h]quinazoline-4,7-diamine], the pIC50 in experiment [1] was 6.00 to 7.00. In addition, the GI50 in experiment [2] and in experiment [3] was 100 to 2000 nM in each case.

Regarding `Nc1ncnc2c1C1(CCCC1)Cc1c-2ccc(O[C@H]2CC[C@@H](N)CC2)c1NCCO` [Example 70, 2-[[4-amino-8-(cis-4-aminocyclohexoxy)spiro[6H-benzo[h]quinazoline-5,1′-cyclopentane]-7-yl]amino]ethanol], the pIC50 in experiment [1] was more than 7.52. In addition, the GI50 in experiment [2] and in experiment [3] was 100 to 2000 nM in each case.

`CN(CC#N)S(=O)(=O)c1c(O[C@H]2CC[C@H](N)CC2)ccc2c1CC(C)(C)c1c(N)ncnc1-2` [Example 113, 4-amino-8-(trans-4-aminocyclohexoxy)-N-(cyanomethyl)-N,5,5-trimethyl-6H-benzo[h]quinazoline-7-sulfonamide]: the pIC50 in experiment [1] was 7.00 to 7.52. The GI50 in experiment [2] and in experiment [3] was 100 to 2000 nM throughout.

Consider `CC1(C)Cc2c(ccc(O[C@H]3CC[C@H](N)CC3)c2SCCC#N)-c2ncnc(N)c21` [Example 108, 3-[[4-amino-8-(trans-4-aminocyclohexoxy)-5,5-dimethyl-6H-benzo[h]quinazolin-7-yl]sulfanyl]propanenitrile], for which, in experiment [1], the pIC50 is more than 7.52. Also, the GI50 in experiment [2] is 100 to 2000 nM; in experiment [3], less than 100 nM.

For the compound `COc1ccc2c(c1N(CCC#N)Cc1nnc(C(C)F)o1)CC(C)(C)c1c(N)ncnc1-2` (stereo not drawn) [Example 124, 3-[(4-amino-8-methoxy-5,5-dimethyl-6H-benzo[h]quinazolin-7-yl)-[[5-(1-fluoroethyl)-1,3,4-oxadiazol-2-yl]methyl]amino]propanenitrile], the pIC50 in experiment [1] was 6.00 to 7.00. The GI50 in experiment [2] and in experiment [3] was 100 to 2000 nM in each case.

For `C#CCCN(C)c1c(O[C@H]2CC[C@H](N)CC2)ccc2c1CC(C)(C)c1c(N)ncnc1-2` [Example 54, 8-(trans-4-aminocyclohexoxy)-N7-but-3-ynyl-N7,5,5-trimethyl-6H-benzo[h]quinazoline-4,7-diamine], the pIC50 in experiment [1] is more than 7.52. Moreover, the 50% growth inhibitory concentration (GI50) in experiment [2] and in experiment [3] was less than 100 nM in each case.
